Key:
Assay type in all cases: in vivo
[1] = test system: Spodoptera littoralis (Egyptian Cotton Leaf Worm); test: Activity against Spodoptera littoralis (Egyptian cotton leaf worm), sprayed cotton leaf discs; details: foliar, 72 h, application rate 200 ppm, L1 larvae, 3 days after infestation
Method: Example B7: Activity Against Spodoptera littoralis (Egyptian Cotton Leaf Worm)
Cotton leaf discs were placed onto agar in 24-well microtiter plates and sprayed with aqueous test solutions prepared from 10,000 ppm DMSO stock solutions. After drying the leaf discs were infested with five L1 larvae. The samples were assessed for mortality, anti-feeding effect, and growth inhibition in comparison to untreated samples 3 days after infestation. Control of Spodoptera littoralis by a test sample is given when at least one of the categories mortality, anti-feedant effect, and growth inhibition is higher than the untreated sample.

[2] = test system: Myzus persicae (Green Peach Aphid); test: Activity against Myzus persicae (green peach aphid), feeding/contact activity; details: 144 h, application rate 200 ppm, mixed ages, 6 days after infestation
Method: Example B6: Activity Against Myzus persicae (Green Peach Aphid) Feeding/Contact Activity
Sunflower leaf discs were placed onto agar in a 24-well microtiter plate and sprayed with aqueous test solutions prepared from 10,000 ppm DMSO stock solutions. After drying, the leaf discs were infested with an aphid population of mixed ages. The samples were assessed for mortality 6 days after infestation.

[3] = test system: Diabrotica balteata (Corn Root Worm); test: Activity against Diabrotica balteata (corn root worm), corn seedlings on filter paper in cups; details: 120 h, application rate 3 ppm, L2 larva, 5 days after treatment, read-out: effect in at least one of the two categories (mortality or growth inhibition)
Method: Example B12: Activity Against Diabrotica Balteata (Corn Root Worm)
Three corn seedlings were placed on wetted filter paper in plastic cups, and 3 ml of diluted test solutions were pipetted onto them. The cups were infested with 10 L2 larva and checked for mortality and growth regulation 5 days after treatment.

[4] = test system: Chilo suppressalis (Striped Rice Stemborer); test: Activity against Chilo suppressalis (striped rice stemborer), treated artificial diet; details: 144 h, application rate 200 ppm, L2 larvae, 6 days after infestation
Method: Example B10: Activity Against Chilo suppressalis (Striped Rice Stemborer)
24-well microtiter plates with artificial diet were treated with aqueous test solutions prepared from 10,000 ppm DMSO stock solutions by pipetting. After drying, the plates were infested with L2 larvae (6-8 per well). The samples were assessed for mortality, anti-feeding effect, and growth inhibition in comparison to untreated samples 6 days after infestation. Control of Chilo suppressalis by a test sample is given when at least one of the categories mortality, anti-feedant effect, and growth inhibition is higher than the untreated sample.

[5] = test system: Diabrotica balteata (Corn Root Worm); test: Activity against Diabrotica balteata (corn root worm), sprayed maize sprouts on agar; details: 96 h, application rate 200 ppm, L2 larvae, 4 days after infestation, read-out: effect in at least one of the two categories (mortality or growth inhibition)
Method: Example B2: Activity Against Diabrotica balteata (Corn Root Worm)
Maize sprouts placed onto an agar layer in 24-well microtiter plates were treated with aqueous test solutions prepared from 10,000 ppm DMSO stock solutions by spraying. After drying, the plates were infested with L2 larvae (6 to 10 per well). The samples were assessed for mortality and growth inhibition in comparison to untreated samples 4 days after infestation.

[6] = test system: Carpocapsa (Cydia) Pomonella (Codling Moth); test: Activity against Carpocapsa (Cydia) pomonella (codling moth), sprayed diet cubes; details: 336 h, application rate 12.5 ppm, L1 larvae, 14 days after infestation, read-out: effect in at least one of the two categories (mortality or growth inhibition)
Method: Example B11: Activity Against Carpocapsa (Cydia) Pomonella (Codling Moth)
Diet cubes coated with paraffin were sprayed with diluted test solutions in an application chamber. After drying off the treated cubes (10 replicates) were infested with 1 L1 larvae. Samples were incubated at 26-27° C. and checked 14 days after infestation for mortality and growth inhibition. The following compounds gave an effect of at least 80% in at least one of the two categories (mortality or growth inhibition) at an application rate of 12.5 ppm: P1, P2, P3, P4, P5, P6, P10, P11, P12, P14, P15, P16, P17, P19, P20, P21, P22, P24, P27, P29, P30, P33, P34, P35.

[7] = test system: Plutella xylostella (Diamond Back Moth); test: Activity against Plutella xylostella (diamond back moth), treated artificial diet; details: 192 h, application rate 200 ppm, eggs, 8 days after infestation, read-out: effect in at least one of the two categories (mortality or growth inhibition)
Method: Example B5: Activity Against Plutella xylostella (Diamond Back Moth)
24-well microtiter plates with artificial diet were treated with aqueous test solutions prepared from 10,000 ppm DMSO stock solutions by pipetting. After drying, Plutella eggs were pipetted through a plastic stencil onto a gel blotting paper and the plate was closed with it. The samples were assessed for mortality and growth inhibition in comparison to untreated samples 8 days after infestation.

[8] = test system: Euschistus heros (Neotropical Brown Stink Bug); test: Activity against Euschistus heros (neotropical brown stink bug), sprayed soybean leaves; details: 120 h, application rate 200 ppm, N2 nymphs, 5 days after infestation, read-out: effect in at least one of the two categories (mortality or growth inhibition)
Method: Example B3: Activity Against Euschistus heros (Neotropical Brown Stink Bug)
Soybean leaves on agar in 24-well microtiter plates were sprayed with aqueous test solutions prepared from 10,000 ppm DMSO stock solutions. After drying the leaves were infested with N2 nymphs. The samples were assessed for mortality and growth inhibition in comparison to untreated samples 5 days after infestation.

CCS(=O)(=O)c1c(N2Cc3ncc(C(F)(F)F)cc3C2=O)nc2ccc(OC(C)C)cn12 [Compound P9, 6-(3-ethylsulfonyl-6-isopropoxy-imidazo [1,2-a]pyridin-2-yl)-3-(trifluoromethyl)-7H-pyrrolo[3,4-b] pyridin-5-one]
≥ 80%: percent control (mortality, anti-feedant effect or growth inhibition) at 200 ppm [1]

CCS(=O)(=O)c1c(N2Cc3ncc(C(F)(F)F)cc3C2=O)nc2cc(C3CC3)ccn12 [Compound P24, 6-(7-cyclopropyl-3-ethylsulfonyl-imidazo[1,2-a]pyridin-2-yl)-3-(trifluoromethyl)-7H-pyrrolo[3,4-b]pyridin-5-one]
≥ 80%: mortality at 200 ppm [2] | percent effect (mortality or growth inhibition) at 3 ppm [3] | percent control (mortality, anti-feedant effect or growth inhibition) at 200 ppm [4] | percent effect (mortality or growth inhibition) at 200 ppm [5] | percent effect (mortality or growth inhibition) at 12.5 ppm [6] | percent effect (mortality or growth inhibition) at 200 ppm [7] | percent control (mortality, anti-feedant effect or growth inhibition) at 200 ppm [1] | percent effect (mortality or growth inhibition) at 200 ppm [8]

CCS(=O)(=O)c1c(N2Cc3ccc(S(=O)(=O)C(F)(F)F)cc3C2=O)nc2ccc(Br)cn12 [Compound P30, 2-(6-bromo-3-ethylsulfonyl-imidazo[1,2-a]pyridin-2-yl)-6-(trifluoromethyl-sulfonyl) isoindolin-1-one]
≥ 80%: percent effect (mortality or growth inhibition) at 3 ppm [3] | percent control (mortality, anti-feedant effect or growth inhibition) at 200 ppm [4] | percent effect (mortality or growth inhibition) at 200 ppm [5] | percent effect (mortality or growth inhibition) at 12.5 ppm [6] | percent effect (mortality or growth inhibition) at 200 ppm [7] | percent control (mortality, anti-feedant effect or growth inhibition) at 200 ppm [1]

CCS(=O)(=O)c1c(N2Cc3ncc(C(F)(F)F)cc3C2=O)nc2ccc(OC)cn12 [Compound P8, 6-(3-ethylsulfonyl-6-methoxy-imidazo [1,2-a]pyridin-2-yl)-3-(trifluoromethyl)-7H-pyrrolo[3,4-b] pyridin-5-one]
≥ 80%: percent effect (mortality or growth inhibition) at 200 ppm [5] | percent effect (mortality or growth inhibition) at 200 ppm [7] | percent control (mortality, anti-feedant effect or growth inhibition) at 200 ppm [1] | percent effect (mortality or growth inhibition) at 200 ppm [8]

CCS(=O)(=O)c1c(N2Cc3ncc(C(F)(F)F)cc3C2=O)nc2cc(C(F)(F)F)ccn12 [Compound P2, 6-[3-ethylsulfonyl-7-(trifluoromethyl)imidazo[1,2-a]pyridin-2-yl]-3-(trifluoromethyl)-7H-pyrrolo[3,4-b]pyridin-5-one]
≥ 80%: mortality at 200 ppm [2] | percent effect (mortality or growth inhibition) at 3 ppm [3] | percent effect (mortality or growth inhibition) at 200 ppm [5] | percent effect (mortality or growth inhibition) at 12.5 ppm [6] | percent effect (mortality or growth inhibition) at 200 ppm [7] | percent control (mortality, anti-feedant effect or growth inhibition) at 200 ppm [1]

CCS(=O)(=O)c1c(N2Cc3ncc(C(F)(F)F)cc3C2=O)nc2ccc(OCC3(C#N)CC3)cn12 [Compound P31, 1-[[3-ethylsulfonyl-2-[5-oxo-3-(trifluoromethyl)-7H-pyrrolo[3,4-b]pyridin-6-yl]imidazo [1,2-a]pyridin-6-yl]oxymethyl] cyclopropane-carbonitrile]
≥ 80%: percent control (mortality, anti-feedant effect or growth inhibition) at 200 ppm [4] | percent effect (mortality or growth inhibition) at 200 ppm [5] | percent effect (mortality or growth inhibition) at 200 ppm [7] | percent control (mortality, anti-feedant effect or growth inhibition) at 200 ppm [1]

CCS(=O)(=O)c1c(N2Cc3ccc(OC(F)(F)F)cc3C2=O)nc2cc(OCC(F)(F)F)ccn12 [Compound P28, 2-[3-ethylsulfonyl-7-(2,2,2-trifluoroethoxy)imidazo[1,2-a]pyridin-2-yl]-6-(trifluoromethoxy) isoindolin-1-one]
≥ 80%: percent effect (mortality or growth inhibition) at 3 ppm [3]

CCS(=O)(=O)c1c(N2Cc3ncc(C(F)(F)F)cc3C2=O)nc2ccc(OCC(F)(F)F)cn12 [Compound P11, 6-[3-ethylsulfonyl-6-(2,2,2-trifluoroethoxy)imidazo[1,2-a]pyridin-2-yl]-3-(trifluoromethyl)-7H-pyrrolo[3,4-b]pyridin-5-one]
≥ 80%: mortality at 200 ppm [2] | percent effect (mortality or growth inhibition) at 3 ppm [3] | percent control (mortality, anti-feedant effect or growth inhibition) at 200 ppm [4] | percent effect (mortality or growth inhibition) at 200 ppm [5] | percent effect (mortality or growth inhibition) at 12.5 ppm [6] | percent effect (mortality or growth inhibition) at 200 ppm [7] | percent control (mortality, anti-feedant effect or growth inhibition) at 200 ppm [1]

CCS(=O)(=O)c1c(N2Cc3ncc(C(F)(F)F)cc3C2=O)nc2ccc(C(C)(F)F)cn12 [Compound P18, 6-[6-(1,1-difluoroethyl)-3-ethylsulfonyl-imidazo [1,2-a]pyridin-2-yl]-3-(trifluoromethyl)-7H-pyrrolo[3,4-b]pyridin-5-one]
≥ 80%: percent effect (mortality or growth inhibition) at 3 ppm [3]

CCS(=O)(=O)c1c(N2Cc3ncc(C(F)(F)F)cc3C2=O)nc2cc(Br)ccn12 [Compound P22, 6-(7-bromo-3-ethylsulfonyl-imidazo[1,2-a]pyridin-2-yl)-3-(trifluoromethyl)-7H-pyrrolo[3,4-b]pyridin-5-one]
≥ 80%: mortality at 200 ppm [2] | percent effect (mortality or growth inhibition) at 3 ppm [3] | percent control (mortality, anti-feedant effect or growth inhibition) at 200 ppm [4] | percent effect (mortality or growth inhibition) at 200 ppm [5] | percent effect (mortality or growth inhibition) at 12.5 ppm [6] | percent effect (mortality or growth inhibition) at 200 ppm [7] | percent control (mortality, anti-feedant effect or growth inhibition) at 200 ppm [1]

CCS(=O)(=O)c1c(N2Cc3ccc(OC(F)F)cc3C2=O)nc2ccc(C(F)(F)F)cn12 [Compound P34, 6-(difluoromethoxy)-2-[3-ethylsulfonyl-6-(trifluoromethyl)imidazo[1,2-a]pyridin-2-yl]isoindolin-1-one]
≥ 80%: mortality at 200 ppm [2] | percent effect (mortality or growth inhibition) at 3 ppm [3] | percent control (mortality, anti-feedant effect or growth inhibition) at 200 ppm [4] | percent effect (mortality or growth inhibition) at 200 ppm [5] | percent effect (mortality or growth inhibition) at 12.5 ppm [6] | percent effect (mortality or growth inhibition) at 200 ppm [7] | percent control (mortality, anti-feedant effect or growth inhibition) at 200 ppm [1]

CCS(=O)(=O)c1c(N2Cc3ccc(OC(F)(F)F)cc3C2=O)nc2ccc(Br)cn12 [Compound P29, 2-(6-bromo-3-ethylsulfonyl-imidazo [1,2-a]pyridin-2-yl)-6-(trifluoromethoxy) isoindolin-1-one]
≥ 80%: mortality at 200 ppm [2] | percent effect (mortality or growth inhibition) at 3 ppm [3] | percent control (mortality, anti-feedant effect or growth inhibition) at 200 ppm [4] | percent effect (mortality or growth inhibition) at 200 ppm [5] | percent effect (mortality or growth inhibition) at 12.5 ppm [6] | percent effect (mortality or growth inhibition) at 200 ppm [7] | percent control (mortality, anti-feedant effect or growth inhibition) at 200 ppm [1]

CCS(=O)(=O)c1c(N2Cc3ccc(S(=O)(=O)C(F)(F)F)cc3C2=O)nc2ccc(C(F)(F)F)cn12 [Compound P32, 2-[3-ethylsulfonyl-6-(trifluoromethyl)imidazo[1,2-a]pyridin-2-yl]-6-(trifluoromethyl-sulfonyl) isoindolin-1-one]
≥ 80%: percent effect (mortality or growth inhibition) at 3 ppm [3] | percent control (mortality, anti-feedant effect or growth inhibition) at 200 ppm [4] | percent effect (mortality or growth inhibition) at 200 ppm [5] | percent effect (mortality or growth inhibition) at 200 ppm [7] | percent control (mortality, anti-feedant effect or growth inhibition) at 200 ppm [1]

Source: patent US12696901B2, “Pesticidally active heterocyclic derivatives with sulfur containing substituents” (SYNGENTA CROP PROTECTION AG, priority 2020, dated 2026)
